From paper PMC5319746, “Phospholipid binding to the FAK catalytic domain impacts function” (PLoS ONE, 2017)
Like-named read-outs stand apart in the source and are kept apart here.

How the values were obtained:
[1] = target: T1, wild type avian FAK catalytic domain (GST fusion protein) (Gallus gallus, UniProt Q00944); assay: Fluorescence anisotropy binding of BODIPY-labeled C6 phosphoinositides to wild type catalytic domain; settings: for Binding to wild type catalytic domain compared with the PI control (ANOVA, Tukey's posttest): anisotropy at 100 and 200 μM protein
T1 construct: the catalytic domain of FAK was expressed as a GST fusion protein; made in house; host or cells: Escherichia coli BL21 (Codon Plus)
Experimental: (§1) For anisotropy experiments purified GST fusion proteins were incubated with BODIPY (dipyrromethene boron difluoride)-labeled phosphoinosotides with C6-acyl chains (Echelon). Increasing concentrations of purified protein were added to 12.5 nM fluorescent phosphoinositide in buffer containing 20 mM HEPES [pH7.5], 150 mM NaCl, and 5 mM β-mercaptoethanol. Anisotropy measurements were taken at 37°C using a Flourlog spectroflourometer equipped with Glan-Thompson polarizers with FluorEssence software (HORIBA Jobin Yvon). Specific binding of the catalytic domain was determined by subtraction of binding of GST alone. Binding curves and dissociation constants were determined using the Prism 5.0 statistical analysis software (GraphPad).
(§2) PI(4,5)P2 binding was further validated using fluorescence anisotropy. GST and the GST catalytic domain of FAK were incubated with BODIPY-TMR labeled short acyl chain (C6) PI or PI(4,5)P2 and anisotropy measured.
To test the specificity of the lipid interaction, the binding of wild type and RK5A GST-fusion proteins to phosphatidylinositol, PI(4)P, PI(4,5)P2, and PI(3,4,5)P3 was analyzed. Purified GST catalytic domain fusion proteins were titrated into a solution of BODIPY-labeled phospholipids with C6-acyl chains, and anisotropy was measured. Phosphatidylinositol with C6-acyl chains and purified GST were used as controls. Differences in anisotropy of each BODIPY-labeled phospholipid at 100 and 200 μM of each protein were compared by ANOVA and a Tukey’s posttest (S1 Table). […] To calculate binding affinities, anisotropy was plotted against protein concentration and binding to GST was subtracted as background binding. […] To determine if the observed interaction with the short acyl chain PI(4,5)P2 required the basic residues implicated in binding to PI(4,5)P2-containing vesicles, the RK5A mutant was analyzed.

[2] = target: T2, FAK catalytic domain RK5A mutant (GST fusion protein) (Gallus gallus, UniProt Q00944, K515A/K621A/K627A/R508A/R514A); assay: Fluorescence anisotropy binding of BODIPY-labeled C6 phosphoinositides to RK5A mutant; set-up: species or system avian
T2 construct: This GST mutant catalytic domain fusion protein was found in the supernatant; made in house; host or cells: Escherichia coli BL21 (Codon Plus)
Experimental: as §1, §2
To test the specificity of the lipid interaction, the binding of wild type and RK5A GST-fusion proteins to phosphatidylinositol, PI(4)P, PI(4,5)P2, and PI(3,4,5)P3 was analyzed. Purified GST catalytic domain fusion proteins were titrated into a solution of BODIPY-labeled phospholipids with C6-acyl chains, and anisotropy was measured. Phosphatidylinositol with C6-acyl chains and purified GST were used as controls. […]

[3] = target: T3, FAK catalytic domain R508A/K621A mutant (GST fusion protein) (Gallus gallus, UniProt Q00944, K621A/R508A); settings: BODIPY-labeled C6 lipid, Fig 7, read-out: Kd for binding (specific binding, GST subtracted)
T3 construct: mutations were engineered into the GST-catalytic domain construct; made in house; host or cells: Escherichia coli BL21 (Codon Plus)
Excerpt: (§3) Short acyl chain (C6) BODIPY labeled PI(4,5)P2, was chosen to assess the ability of these mutants to bind phospholipids using fluorescence anisotropy.

[4] = target: T4, FAK catalytic domain K621A/K627A mutant (GST fusion protein) (Gallus gallus, UniProt Q00944, K621A/K627A); settings: BODIPY-labeled C6 lipid, Fig 7, read-out: Kd for binding (specific binding, GST subtracted)
T4 construct: mutations were engineered into the GST-catalytic domain construct; made in house; host or cells: Escherichia coli BL21 (Codon Plus)
Excerpt: as §3

[5] = target: T5, FAK catalytic domain R508A/R514A/K515A mutant (GST fusion protein) (Gallus gallus, UniProt Q00944, K515A/R508A/R514A); settings: BODIPY-labeled C6 lipid, Fig 7, read-out: Kd for binding (specific binding, GST subtracted)
T5 construct: mutations were engineered into the GST-catalytic domain construct; made in house; host or cells: Escherichia coli BL21 (Codon Plus)
Excerpt: as §3

[6] = wild type catalytic domain, lipid specificity experiment, Fig 8B, read-out: Kd of the wild type catalytic domain for each phosphatidylinositol phosphate

T1 sequence (Q00944 422-680 limits assumed): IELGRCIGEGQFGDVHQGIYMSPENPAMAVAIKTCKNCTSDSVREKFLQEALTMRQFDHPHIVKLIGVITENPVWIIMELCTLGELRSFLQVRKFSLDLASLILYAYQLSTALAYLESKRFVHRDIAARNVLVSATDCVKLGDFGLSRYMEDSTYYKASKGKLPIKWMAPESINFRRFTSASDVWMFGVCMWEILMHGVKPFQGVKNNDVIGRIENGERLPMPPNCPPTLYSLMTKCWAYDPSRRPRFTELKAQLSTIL
T2 sequence (Q00944 422-680 R508A/R514A/K515A/K621A/K627A limits assumed): as the sequence (Q00944 422-680 limits assumed) above, with R87A, R93A, K94A, K200A, K206A counted along it
T3 sequence (Q00944 422-680 R508A/K621A limits assumed): as the sequence (Q00944 422-680 limits assumed) above, with R87A, K200A counted along it
T5 sequence (Q00944 422-680 R508A/R514A/K515A limits assumed): as the sequence (Q00944 422-680 limits assumed) above, with R87A, R93A, K94A counted along it
T4 sequence (Q00944 422-680 K621A/K627A limits assumed): as the sequence (Q00944 422-680 limits assumed) above, with K200A, K206A counted along it

Substance	Binding to wild type catalytic domain compared with the PI control (ANOVA, Tukey's posttest) [1]	Kd [1, 6] [µM]	Kd ([2]; BODIPY-labeled C6 lipid, Fig 7 experiment, read-out: Kd for binding (specific binding, GST subtracted)) [µM]	Specific binding (in words) ([2]; anisotropy, GST subtracted)	Kd [3] [µM]	Kd ([1]; wild type catalytic domain, BODIPY-labeled C6 lipid 12.5 nM, 37°C, Fig 7 experiment, read-out: Kd for binding (specific binding, GST subtracted)) [µM]	Kd [4] [µM]	Kd [5] [µM]	Specific binding (in words) ([1]; wild type catalytic domain, anisotropy, GST subtracted)
PI(3,4,5)P3	significant	16 ± 9.2	–	–	–	–	–	–	–
PI(4)P	approached, but did not reach significance	11.7 ± 13.7	–	–	–	–	–	–	–
Phosphatidylinositol-4,5-bisphosphate [PI(4,5)P2]	significant	12.9 ± 2.3	> 200	no specific binding	> 200	15.7 ± 6.5	20.8 ± 2.7	16.4 ± 3.2	–
phosphatidylinositol [PI]	–	> 200	–	–	–	–	–	–	did not specifically bind
